Measured values: paper PMC11834790, “Pyridine indole hybrids as novel potent CYP17A1 inhibitors” (Journal of Enzyme Inhibition and Medicinal Chemistry, 2025)
Where “and” joins values, the source holds several entries; their conditions need not be identical. Equal values may be shown once.

How the values were obtained:
[1] = molecular target: T1, CYP17A1 (Homo sapiens, UniProt P05093); assay: CYP17A1 17α-hydroxylase activity assay in NCI-H295R cells ([14C]-progesterone, TLC); format: cell-based; details: 4 h, DMSO = 100, read-out: CYP17A1 Hydroxylase activity, Mean (percentage of activity remaining relative to the control)
T1 construct: immortalised human adrenal cells expressing CYP17A1 and other steroidogenic enzymes; endogenous in cells; host or cells: NCI-H295R (human adrenal cells)
T1 sequence (P05093 1-508): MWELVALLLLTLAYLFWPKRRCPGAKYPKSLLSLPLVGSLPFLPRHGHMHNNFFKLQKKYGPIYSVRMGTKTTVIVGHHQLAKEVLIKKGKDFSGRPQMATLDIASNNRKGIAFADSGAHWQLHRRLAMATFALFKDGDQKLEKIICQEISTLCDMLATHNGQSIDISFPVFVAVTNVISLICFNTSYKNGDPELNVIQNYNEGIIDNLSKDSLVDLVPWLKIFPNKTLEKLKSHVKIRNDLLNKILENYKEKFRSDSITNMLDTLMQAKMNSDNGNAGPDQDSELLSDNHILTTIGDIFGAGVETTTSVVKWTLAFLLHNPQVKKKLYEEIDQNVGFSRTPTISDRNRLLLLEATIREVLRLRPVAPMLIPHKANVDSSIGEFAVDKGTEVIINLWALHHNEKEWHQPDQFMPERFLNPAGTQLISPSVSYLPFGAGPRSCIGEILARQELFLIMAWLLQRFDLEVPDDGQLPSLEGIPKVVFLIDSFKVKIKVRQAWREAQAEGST
Method: (§1) Human adrenal NCI-H295R cells are an established model for assay of CYP17A1 activities. The NCI-H295R cells were seeded in 12-well plates at 500 000 cells per well and incubated overnight. On the following day, 10 µM of test compounds were added to the wells with fresh medium and incubated for 4 h. Abiraterone was used as a reference, and DMSO was included as a control. For assessing CYP17A1 hydroxylase activity, cells were treated with [^14C]-Progesterone at 10 000 cpm/1 µM per well. Trilostane was added prior to the test compounds and substrate to inhibit 3β-hydroxysteroid dehydrogenase activity so that a clean assay of only CYP17A1 activity could be performed[20]^,[27]^,[28]. Radiolabeled steroids were extracted from the media using a mixture of ethyl acetate and isooctane (1:1 v/v) and separated by Thin Layer Chromatography (TLC) on silica gel-coated aluminium plates (Supelco® Analytics, Sigma-Aldrich Chemie GmbH, Taufkirchen, Germany). TLC spots were visualised on a phosphor screen and detected by autoradiography using a Typhoon™ FLA-7000 PhosphorImager (GE Healthcare, Uppsala, Sweden). Radioactivity was quantified with ImageQuant™ TL analysis software (GE Healthcare Europe GmbH, Freiburg, Germany), and enzyme activity was expressed as the percentage of radioactivity incorporated into the product relative to the total radioactivity. For CYP17A1 lyase activity, cells were exposed to 50 000 cpm/1 µM [21-^3H]-17α-hydroxypregnenolone per well under similar conditions. The tritiated water release assay was used to measure the conversion of 17OH-Pregnenolone to DHEA. Steroids in the media were precipitated using a 5% activated charcoal/0.5% dextran solution. Enzyme activity was evaluated based on the water-soluble tritiated by-product formed in equimolar amounts with DHEA, with radioactivity in the aqueous phase quantified by liquid scintillation counting (MicroBeta2® Plate Counter, PerkinElmer Inc., Waltham, MA, USA). Percent inhibition was calculated relative to control samples.

[2] = molecular target: T1, CYP17A1; assay: CYP17A1 17,20-lyase activity assay in NCI-H295R cells (tritiated water release); format: cell-based; details: 4 h, DMSO = 100, read-out: CYP17A1 Lyase activity, Mean (percentage of activity remaining relative to the control)
Method: as §1

[3] = tested on: adrenal steroidogenesis in NCI-H295R cells; assay: Steroid profiling by LC-MS in NCI-H295R cells; format: cell-based, human; details: for Androsterone, Mean / Testosterone, Mean / Progesterone, Mean / Androstendione, Mean / 17a-Hydroxyprogesterone, Mean / DHEA, Mean / 11-Deoxycortisol, Mean / 11-Deoxycorticosterone, Mean / Pregnenolone, Mean / Cortisone, Mean / DHEA-S, Mean / Dihydrotestosterone, Mean: compounds at 10 µM; for Androsterone, Mean / Testosterone, Mean / Progesterone, Mean / Androstendione, Mean / 17a-Hydroxyprogesterone, Mean / DHEA, Mean / 11-Deoxycortisol, Mean / 11-Deoxycorticosterone, Mean / Pregnenolone, Mean: 1 µM pregnenolone; for Androsterone, Mean / Cortisone, Mean / DHEA-S, Mean / Dihydrotestosterone, Mean: DMSO 0; for Testosterone, Mean: DMSO 0.4785; for Progesterone, Mean: DMSO 4.814; for Androstendione, Mean: DMSO 7.577; for 17a-Hydroxyprogesterone, Mean: DMSO 9.967; for DHEA, Mean: DMSO 15.119; for 11-Deoxycortisol, Mean: DMSO 26.594; for 11-Deoxycorticosterone, Mean: DMSO 28.1555; for Pregnenolone, Mean: DMSO 2043.56; for Cortisone, Mean / DHEA-S, Mean / Dihydrotestosterone, Mean: not detected within the experimental timeframe
Method: (§2) Steroid quantification was performed using Liquid Chromatography–Mass Spectrometry (LC-MS), following established protocols to study effect of compounds on adrenal steroidogenesis. Human adrenal NCI-H295R cells were seeded in 12-well plates at 500 000 cells per well and treated with fresh growth medium containing the test compounds for 4 h. Subsequently, 1 µM pregnenolone was added and incubated for an additional 4 h. Steroids were extracted from 500 µL aliquots of cell media, separated, and quantified according to the referenced methodology.

[4] = molecular target: T1, CYP17A1; assay: CYP17A1 activity calculated as ratios of steroid products to substrates (LC-MS); format: cell-based; details: normalised to DMSO-treated cells (100%), NCI-H295R
Method: as §2
To provide deeper insights into CYP17A1 inhibition, the enzyme activity was calculated using ratios of steroid products to substrates, focusing on dual activities of CYP17A1 (Figure 4(B)).

[5] = Alamar blue (resazurin) cell viability, RWPE-1; format: cell-based; details: human, RWPE-1 cells, of the control
Method: (§3) LNCaP and RWPE-1 cells were plated in 96-well plates at 10 000 cells per well and incubated overnight at 37 °C with 5% CO2. VCaP cells were plated at 12 000 cells per well under the same conditions. After 24 h, the medium was replaced with fresh medium containing the compounds or abiraterone at a final concentration of 10 µM. Cells were incubated for an additional 24 and 48 h. Cell viability was measured using the Alamar Blue assay. Post-incubation, 0.05 mg/mL Alamar Blue solution in phosphate-buffered saline (PBS) was added to each well. The plates were incubated in the dark at 37 °C for 4 h, and fluorescence was measured at an excitation wavelength of 550 nm and an emission wavelength of 590 nm. Cell viability was calculated relative to control sample treated with DMSO. All experiments were conducted in triplicate.

[6] = tested on: VCaP cells; assay: Alamar blue (resazurin) cell viability, VCaP; format: cell-based, human; details: for Cytotoxic effect on VCaP cells (in words): 10 µM, 24 and 48 h
Method: as §3

[7] = tested on: LNCaP cells; assay: Alamar blue (resazurin) cell viability, LNCaP; format: cell-based, human; details: 10 µM, 24 and 48 h
Method: as §3

[8] = tested on: DU-145 cells; assay: Scratch (wound healing) assay; format: cell-based, human; details: DU-145, 10 µM; for Wound area, Mean (area remaining open): 24 h, DMSO 170.5; for Effect on cell migration (in words): after 24 h
Method: Human prostate cancer DU-145 cells show strong cell proliferation and therefore, are an established model for assay of antiproliferative effects of test compounds. DU-145 cells were plated in 24-well plates at 50 000 cells per well and grown until they reached 85% confluence. To inhibit cell proliferation, cells were treated with 5 µg/mL mitomycin for 2 h. A wound was created using a 10 µL pipette tip. The cells were then exposed to drugs at a concentration of 10 µM, while control wells received DMSO. Wound closure was observed and photographed using an optical microscope after 24 h. Images were analysed using ImageJ software (version 1.54j).

[9] = molecular target: T1, CYP17A1; assay: CYP17A1 17,20-lyase activity assay in NCI-H295R cells (tritiated water release); format: cell-based; details: dose-response, read-out: IC50, inhibition of 17,20-lyase activity

| SMILES | remaining activity at 10 µM [1] [%] | remaining activity at 10 µM [2] [%] | Androsterone, Mean [3] [nmol/L] | Testosterone, Mean [3] [nmol/L] | Progesterone, Mean [3] [nmol/L] | Androstendione, Mean [3] [nmol/L] | 17a-Hydroxyprogesterone, Mean [3] [nmol/L] | DHEA, Mean [3] | 11-Deoxycortisol, Mean [3] [nmol/L] | 11-Deoxycorticosterone, Mean [3] [nmol/L] | Pregnenolone, Mean [3] [nmol/L] | Cortisone, Mean [3] [nmol/L] | DHEA-S, Mean [3] [nmol/L] | Dihydrotestosterone, Mean [3] [nmol/L] | 17α-Hydroxylase activity (ratios of steroid products to substrates) [4] [%] | viability at 48 h, 10 µM [5] [%] | Cytotoxic effect on VCaP cells (in words) [6] | Cytotoxic effect on LNCaP cells (in words) [7] | Wound area, Mean (area remaining open) [8] [Pixels^2] | Effect on cell migration (in words) [8] | other results |
| --- | --- | --- | --- | --- | --- | --- | --- | --- | --- | --- | --- | --- | --- | --- | --- | --- | --- | --- | --- | --- | --- |
| C[C@]12CC[C@H](O)CC1=CC[C@@H]1[C@@H]2CC[C@]2(C)C(c3cccnc3)=CC[C@@H]12 [ABT, abiraterone, reference compound] | 14 | 24 | 0 | 0.5005 | 3.809 | 1.5465 | 1.202 | 2.775 nmol/L | 3.585 | 2.6135 | 2279.668 | 0 | 0 | 0 | 15.2 | 66 | notable reduction in cell viability | notable reduction in cell viability | 935 | – | Combined 17α-hydroxylase and 17,20-lyase activity (ratios of steroid products to substrates) [4]: ~16.3%; viability at 24 h, 10 µM ([5]; 24 h): 84% |
| N#Cc1c(-c2ccncc2)cc(-c2ccc3[nH]ccc3c2)nc1N [Compound 5, 2-Amino-6-(1H-indol-5-yl)-[4,4′-bipyridine]-3-carbonitrile] | 20 | 39.7 | 0.009 | 0.5215 | 39.9815 | 1.4095 | 1.3865 | 0.748 nmol/L | 4.0415 | 5.503 | 2578.994 | 0 | 0 | 0 | 1.7 | – | – | marked reduction in viability | 1916 | less pronounced effect comparable to that exerted by abiraterone | viability at 10 µM ([6]; Homo sapiens, VCaP, 24 h): < 50%; IC50 [9]: 25 nM |
| N#Cc1c(-c2ccncc2)cc(-c2ccc3[nH]ccc3c2)c(C#N)c1N [Compound 11, 2-Amino-4-(1H-indol-5-yl)-6-(pyridin-4-yl)isophthalonitrile] | 10 | 49.2 | 1.176 | 0.4775 | 67.3265 | 1.3725 | 1.3575 | 1.36 nmol/L and 1.3585 nmol/L | 3.942 | 3.8565 | 2465.505 | 0 | 0 | 0 | 1 | – | did not exhibit high cytotoxic effects | did not exhibit high cytotoxic effects | 8703 | significant inhibition of cell migration | Reduction of DHEA level ([3]; vs DMSO control): 11 fold; IC50 [9]: 4 nM |
| c1cncc(-c2cccc(-c3ccc4[nH]ccc4c3)c2)c1 [Compound 12, 5-(3-(Pyridin-3-yl)phenyl)-1H-indole] | 46 | 48.7 | – | – | – | – | – | – | – | – | – | – | – | – | – | 85 | – | – | – | – | – |
